Patent US20190030170A1, “CANNABINOID FORMULATIONS WITH IMPROVED SOLUBILITY” (Vireo Health LLC, priority 2016, published 2019)
Converted amounts (≈) assume the structure as drawn.

Test: solubility of CBD in water and other aqueous solvents with Captisol (SAE-CD) and/or added polymers, surfactants, pH
Type: physicochemical
Source text: In some embodiments the addition of water soluble polymers and/or surfactants increases the solubility of the CBD/Captisol mixture. Therefore, in some embodiments the formulations may include the addition of these or other ingredients as solubility enhancers.

Question: Which solubility (aqueous solvent with 0.5% Poloxamer 188, without Captisol, aqueous with cosolvent or surfactant or cyclodextrin, Captisol 0%, 0.5% Poloxamer 188) does the source give for `C=C(C)[C@@H]1CCC(C)=C[C@H]1c1c(O)cc(CCCCC)cc1O` [CBD, cannabidiol] here?
Answer: 133 µg/mL (≈ 0.423 mM)

Question: What about the solubility (aqueous solvent, aqueous with cosolvent or surfactant or cyclodextrin, Captisol 0%, 1% CMC) of the same molecule?
Answer: 593 µg/mL (≈ 1.89 mM)

Question: And the solubility (aqueous solvent, aqueous with cosolvent or surfactant or cyclodextrin, Captisol 0%, 1% CrEL)?
Answer: 8960 µg/mL (≈ 28.5 mM)

Question: What about the solubility (aqueous solvent, aqueous with cosolvent or surfactant or cyclodextrin, Captisol 0%, 1% HPMC) of the same molecule?
Answer: 590 µg/mL (≈ 1.88 mM)

Question: What about the solubility (aqueous solvent, aqueous with cosolvent or surfactant or cyclodextrin, Captisol 0%, 1% PVP) of the same molecule?
Answer: 602 µg/mL (≈ 1.92 mM)

Question: What about the solubility (aqueous solvent, aqueous with cosolvent or surfactant or cyclodextrin, Captisol 0%, 1% Tween 80) of the same molecule?
Answer: 4200 µg/mL (≈ 13.3 mM)

Question: And the solubility (aqueous solvent, aqueous with cosolvent or surfactant or cyclodextrin, Captisol 0%, 5% CrEL)?
Answer: 21900 µg/mL (≈ 69.7 mM)

Question: What about the solubility (aqueous solvent, aqueous with cosolvent or surfactant or cyclodextrin, Captisol 0%, 10% CrEL) of the same molecule?
Answer: 47800 µg/mL (≈ 152 mM)

Question: What about the solubility (aqueous solvent, aqueous with cosolvent or surfactant or cyclodextrin, Captisol 20%, 0.5% CMC) of the same molecule?
Answer: 14.5 µg/mL (≈ 0.0461 mM)

Question: And the solubility (aqueous solvent, aqueous with cosolvent or surfactant or cyclodextrin, Captisol 20%, 0.5% HPMC)?
Answer: 1320 µg/mL (≈ 4.2 mM)

Question: What about the solubility (aqueous solvent, aqueous with cosolvent or surfactant or cyclodextrin, Captisol 20%, 0.5% PVP) of the same molecule?
Answer: 1180 µg/mL (≈ 3.74 mM)

Question: And the solubility (aqueous solvent, aqueous with cosolvent or surfactant or cyclodextrin, Captisol 20%, 0.5% Poloxamer 188)?
Answer: 1410 µg/mL (≈ 4.49 mM)

Question: What about the solubility (aqueous solvent, aqueous with cosolvent or surfactant or cyclodextrin, Captisol 20%, 1% CMC) of the same molecule?
Answer: 1710 µg/mL (≈ 5.44 mM)

Question: And the solubility (aqueous solvent, aqueous with cosolvent or surfactant or cyclodextrin, Captisol 20%, 1% CrEL)?
Answer: 4280 µg/mL (≈ 13.6 mM)

Question: And the solubility (aqueous solvent, aqueous with cosolvent or surfactant or cyclodextrin, Captisol 20%, 1% HPMC)?
Answer: 1550 µg/mL (≈ 4.94 mM)

Question: And the solubility (aqueous solvent, aqueous with cosolvent or surfactant or cyclodextrin, Captisol 20%, 1% PVP)?
Answer: 1520 µg/mL (≈ 4.82 mM)

Question: What about the solubility (aqueous solvent, aqueous with cosolvent or surfactant or cyclodextrin, Captisol 20%, 1% Tween 80) of the same molecule?
Answer: 2010 µg/mL (≈ 6.4 mM)

Question: What about the solubility (aqueous solvent, aqueous with cosolvent or surfactant or cyclodextrin, Captisol 20%, 2% CMC) of the same molecule?
Answer: 365 µg/mL (≈ 1.16 mM)

Question: What about the solubility (aqueous solvent, aqueous with cosolvent or surfactant or cyclodextrin, Captisol 20%, 2% PVP) of the same molecule?
Answer: 840 µg/mL (≈ 2.67 mM)

Question: And the solubility (aqueous solvent, aqueous with cosolvent or surfactant or cyclodextrin, Captisol 20%, 2% Tween 80)?
Answer: 720 µg/mL (≈ 2.29 mM)

Question: What about the solubility (aqueous solvent, aqueous with cosolvent or surfactant or cyclodextrin, Captisol 20%, 5% CrEL) of the same molecule?
Answer: 13500 µg/mL (≈ 43 mM)

Question: And the solubility (aqueous solvent, aqueous with cosolvent or surfactant or cyclodextrin, Captisol 20%, 5% CrEL and EtOH)?
Answer: 21500 µg/mL (≈ 68.4 mM)

Question: And the solubility (aqueous solvent, aqueous with cosolvent or surfactant or cyclodextrin, Captisol 20%, 10% CrEL)?
Answer: 46700 µg/mL (≈ 149 mM)

Question: And the solubility (aqueous solvent, aqueous with cosolvent or surfactant or cyclodextrin, Captisol 20%, EtOH (line below the 10% heading))?
Answer: 920 µg/mL (≈ 2.93 mM)

Question: What about the solubility (aqueous solvent, aqueous with cosolvent or surfactant or cyclodextrin, Captisol 20%, additive None) of the same molecule?
Answer: 850 µg/mL (≈ 2.7 mM)

Question: What about the solubility (aqueous solvent, aqueous with cosolvent or surfactant or cyclodextrin, Captisol 40%, 0.5% CMC) of the same molecule?
Answer: 3270 µg/mL (≈ 10.4 mM)

Question: And the solubility (aqueous solvent, aqueous with cosolvent or surfactant or cyclodextrin, Captisol 40%, 0.5% HPMC)?
Answer: 2680 µg/mL (≈ 8.52 mM)

Question: What about the solubility (aqueous solvent, aqueous with cosolvent or surfactant or cyclodextrin, Captisol 40%, 0.5% PVP) of the same molecule?
Answer: 2950 µg/mL (≈ 9.37 mM)

Question: And the solubility (aqueous solvent, aqueous with cosolvent or surfactant or cyclodextrin, Captisol 40%, 0.5% Tween 80)?
Answer: 2020 µg/mL (≈ 6.42 mM)

Question: And the solubility (aqueous solvent, aqueous with cosolvent or surfactant or cyclodextrin, Captisol 40%, 1% CMC)?
Answer: 2640 µg/mL (≈ 8.38 mM)

Question: What about the solubility (aqueous solvent, aqueous with cosolvent or surfactant or cyclodextrin, Captisol 40%, 1% HPMC) of the same molecule?
Answer: 3450 µg/mL (≈ 11 mM)

Question: And the solubility (aqueous solvent, aqueous with cosolvent or surfactant or cyclodextrin, Captisol 40%, 1% PVP)?
Answer: 3280 µg/mL (≈ 10.4 mM)

Question: What about the solubility (aqueous solvent, aqueous with cosolvent or surfactant or cyclodextrin, Captisol 40%, 1% Tween 80) of the same molecule?
Answer: 2650 µg/mL (≈ 8.43 mM)

Question: What about the solubility (aqueous solvent, aqueous with cosolvent or surfactant or cyclodextrin, Captisol 40%, additive None) of the same molecule?
Answer: 2800 µg/mL (≈ 8.9 mM)

Question: And the solubility (aqueous solvent, aqueous with cosolvent or surfactant or cyclodextrin, Captisol 0%, 5% CrEL and EtOH)?
Answer: 36200 µg/mL (≈ 115 mM)

Question: And the solubility (aqueous solvent, pH 2, aqueous with cosolvent or surfactant or cyclodextrin, Captisol 20%, pH ~2)?
Answer: 2480 µg/mL (≈ 7.89 mM)

Question: And the solubility (aqueous solvent, pH 4, aqueous with cosolvent or surfactant or cyclodextrin, Captisol 20%, pH 4)?
Answer: 650 µg/mL (≈ 2.07 mM)

Question: What about the solubility (aqueous solvent, pH 7.4, aqueous with cosolvent or surfactant or cyclodextrin, Captisol 20%, PBS (pH = 7.4)) of the same molecule?
Answer: 720 µg/mL (≈ 2.29 mM)

Question: And the solubility (aqueous solvent, pH 7.4, aqueous with cosolvent or surfactant or cyclodextrin, Captisol 40%, PBS (pH = 7.4))?
Answer: 2300 µg/mL (≈ 7.31 mM)

Question: And the solubility (aqueous solvent, pH 9, aqueous with cosolvent or surfactant or cyclodextrin, Captisol 20%, pH 9)?
Answer: 850 µg/mL (≈ 2.7 mM)

Question: And the solubility (aqueous solvent, water, Captisol 0%, additive None)?
Answer: 0.26 µg/mL (≈ 0.000827 mM)

Question: What about the “effect of complexation with Captisol on solubility of CBD in water and other aqueous solvents” value (complexation with an SAE-CD (Captisol)) of the same molecule?
Answer: significantly increased
